In brackets after ≈: the same amount, converted by molar mass. Like-named read-outs stand apart in the source and are kept apart here. Non-standard residues stand in square brackets, D forms with d. Residues, ends and D or L forms follow the SMILES beside them.
Tests used:
[1] = system: C. albicans “R”; test: Susceptibility of Candida strains to antifungal drugs; type: cell-based; set-up: key to Susceptibility category: S: susceptible standard dosing regimen; R: resistant, therapeutic failure with increased exposure; I: susceptible increased exposure; settings: strain C. albicans “R”; for Susceptibility category: EUCAST breakpoints (CLSI for Caspofungin)
Experimental: (§1) Strains of Candida albicans, Candida tropicalis and Candida glabrata, frequently found in cases of oral candidosis, were tested for L-bCtl and D-bCtl antimicrobial activity. The sensitive strain of C. albicans (ATCC 10231^TM) was provided by ATCC (Manassas, VA, USA). The resistant strain of C. albicans, the sensitive and resistant strains of C. tropicalis as well as the sensitive and resistant strains of C. glabrata were kindly provided by Dr Valérie Letscher-Bru (Laboratory of Parasitolology and Medical Mycology, Strasbourg, France).

[2] = system: C. albicans “S”; test: as above; type: cell-based; set-up: key to Susceptibility category: S: susceptible standard dosing regimen; R: resistant, therapeutic failure with increased exposure; I: susceptible increased exposure; settings: strain C. albicans “S”; for Susceptibility category: EUCAST breakpoints (CLSI for Caspofungin)
Experimental: as §1

[3] = system: C. glabrata “R”; test: as above; type: cell-based; set-up: key to Susceptibility category: S: susceptible standard dosing regimen; R: resistant, therapeutic failure with increased exposure; I: susceptible increased exposure; settings: strain C. glabrata “R”; for Susceptibility category: EUCAST breakpoints (CLSI for Caspofungin)
Experimental: as §1

[4] = system: C. glabrata “S”; test: as above; type: cell-based; set-up: key to Susceptibility category: S: susceptible standard dosing regimen; R: resistant, therapeutic failure with increased exposure; I: susceptible increased exposure; settings: strain C. glabrata “S”; for Susceptibility category: EUCAST breakpoints (CLSI for Caspofungin)
Experimental: as §1

[5] = system: C. tropicalis “R”; test: as above; type: cell-based; set-up: key to Susceptibility category: S: susceptible standard dosing regimen; R: resistant, therapeutic failure with increased exposure; I: susceptible increased exposure; settings: strain C. tropicalis “R”; for Susceptibility category: EUCAST breakpoints (CLSI for Caspofungin)
Experimental: as §1

[6] = system: C. tropicalis “S”; test: as above; type: cell-based; set-up: key to Susceptibility category: S: susceptible standard dosing regimen; R: resistant, therapeutic failure with increased exposure; I: susceptible increased exposure; settings: strain C. tropicalis “S”; for Susceptibility category: EUCAST breakpoints (CLSI for Caspofungin)
Experimental: as §1

[7] = system: C. lusitaniae “S”; test: as above; type: cell-based; set-up: key to Susceptibility category: S: susceptible standard dosing regimen; R: resistant, therapeutic failure with increased exposure; I: susceptible increased exposure; settings: strain C. lusitaniae “S”; for Susceptibility category: EUCAST breakpoints (CLSI for Caspofungin)
[8] = system: Candida albicans “R”; type: cell-based; settings: 24 h, pH 5.6
Experimental: as §1
(§2) Each Candida strain was first plated on agar plates and cultured for 24 h at 37 °C. After incubation, one colony per isolate was transferred into 5 mL of Sabouraud medium pH 5.6 (Sigma-Aldrich, Le Pont-de-Claix, France) supplemented with tetracycline (10 μg/mL) and cefotaxime (10 μg/mL) and incubated aerobically under agitation at 37 °C for 24 h. The resulting cultures were resuspended at an absorbance of 0.001 (OD600nm = 0.001) in Sabouraud medium. The OD600nm was evaluated with a spectrophotometer (BIO-RAD Smatspec^TM plus, Schiltigheim, France). In preliminary experiments, we tested RPMI-1640 culture and Sabouraud media. Similar data were obtained but the experiments were more reproducible with Sabouraud than with RPMI1640. Therefore, Sabouraud medium was used in the present study.
(§3) The yeasts (OD600nm = 0.001) were then plated on 96-well microplates and treated with different concentrations of the peptides of interest. After 24 h incubation at 37 °C under agitation, yeast growth was assessed by optical density (OD600nm) using a microplate spectrophotometer (Multiscan EX, Thermo Fisher Scientific, Waltham, MA, USA). All tests were performed in triplicate. The MIC (minimal inhibitory concentration), defined as the lowest concentration of drug able to inhibit 100% of the growth of a pathogen, was determined for the different peptides against all previously described Candida strains, using a modified Gompertz model.

[9] = system: Candida albicans “S” (ATCC 10231); type: cell-based; settings: ATCC 10231, 24 h, pH 5.6
Experimental: as §1, §2, §3

[10] = system: Candida glabrata “R”; type: cell-based; settings: 24 h, pH 5.6
Experimental: as §1, §2, §3

[11] = system: Candida glabrata “S”; type: cell-based; settings: 24 h, pH 5.6
Experimental: as §1, §2, §3

[12] = system: Candida tropicalis “R”; type: cell-based; settings: 24 h, pH 5.6
Experimental: as §1, §2, §3

[13] = system: Candida tropicalis “S”; type: cell-based; settings: 24 h, pH 5.6
Experimental: as §1, §2, §3

[14] = system: “R” C. albicans; test: Transmission electron microscopy of treated cells; type: cell-based, Candida albicans; settings: 1 × MIC and 10 × MIC, 1 h at 37 °C
Experimental: (§4) Precultures of sensitive and resistant Candida albicans strains were incubated for 2 h at 37 °C without shaking on glass bottom 24-well microplates previously treated with poly-L-lysine. The L-bCtl or D-bCtl peptides at concentrations of 1X MIC and 10X MIC were then added to the culture and incubated for 1 h at 37 °C with minimal shaking. The control samples correspond to the incubation of the different Candida albicans strains without any prior treatment. After 1 h incubation with or without each peptide of interest and a brief rinsing in 0.125 M cacodylate buffer, cells were fixed for 2 h 30 min in a 4% (v/v) glutaraldehyde buffered in 0.1 M sodium phosphate at pH 7.2. This step was followed with three 10 min washes in 0.1 M phosphate buffer at pH 7.2. Then the samples were post-fixed in a freshly prepared 2% (v/v) aqueous solution of potassium permanganate for 45 min at room temperature. The samples were washed three more times and dehydrated in graded series of ethanol of 7 min each. […]
(§5) Ultrathin sections were performed using a Reichert Jung Ultra-cut E ultra-microtome (Leica Microsystems, Nanterre, France) equipped with a diamond knife. […] Images were recorded on Kodak SO163 film (Sigma Aldrich, Saint-Quentin Fallavier, France). […]

[15] = system: “S” C. albicans; test: Transmission electron microscopy of treated cells; type: cell-based, Candida albicans; settings: 1 × MIC and 10 × MIC, 1 h at 37 °C
Experimental: as §4, §5

[16] = system: Candida albicans “S” (ATCC 10231); set-up: method as in Dartevelle et al. [28]; settings: ref Dartevelle et al. [28], cited from earlier work; for MIC C. albicans “S”: values marked *, MIC = 100% growth inhibition
[17] = Candida albicans, read-out: MIC
[18] = Nakaseomyces glabratus, read-out: MIC
[19] = Candida tropicalis, read-out: MIC
[20] = Clavispora lusitaniae, read-out: MIC

Compound	MIC [1, 17]	Susceptibility category [1]	MIC [2, 17]	Susceptibility category [2]	MIC [3, 18]	Susceptibility category [3]	MIC [4, 18]	Susceptibility category [4]	MIC [5, 19]	Susceptibility category [5]	MIC [6, 19]	Susceptibility category [6]	MIC [7, 20]	Susceptibility category [7]	MIC C. albicans “R” [8]	MIC Candida glabrata “R” [10]	MIC Candida glabrata “S” [11]	MIC Candida tropicalis “R” [12]	MIC Candida tropicalis “S” [13]	also measured
C[C@@H](c1ncncc1F)[C@](O)(Cn1cncn1)c1ccc(F)cc1F [Voriconazole]	> 32 µg/mL	R	0.002 µg/mL (≈ 0.00573 µM)	S	8 µg/mL (≈ 22.9 µM)	R	0.032 µg/mL (≈ 0.0916 µM)	S	1.5 µg/mL (≈ 4.29 µM)	R	0.047 µg/mL (≈ 0.135 µM)	S	0.012 µg/mL (≈ 0.0344 µM)	S						
C[C@@H]1[C@H](O)[C@@H](C)/C=C/C=C/C=C/C=C/C=C/C=C/C=C/[C@H](O[C@@H]2O[C@H](C)[C@@H](O)[C@H](N)[C@@H]2O)C[C@@H]2O[C@](O)(C[C@@H](O)C[C@@H](O)[C@H](O)CC[C@@H](O)C[C@@H](O)CC(=O)O[C@H]1C)C[C@H](O)[C@H]2C(=O)O [Amphotericin B]	0.125 µg/mL (≈ 0.135 µM)	S	0.19 µg/mL (≈ 0.206 µM)	S	0.5 µg/mL (≈ 0.541 µM)	S	0.125 µg/mL (≈ 0.135 µM)	S	0.125 µg/mL (≈ 0.135 µM)	S	0.125 µg/mL (≈ 0.135 µM)	S	0.75 µg/mL (≈ 0.812 µM)	S						
CSCC[C@H](NC(=O)[C@H](CO)NC(=O)[C@@H](N)CO)C(=O)N[C@@H](CCCCN)C(=O)N[C@@H](CC(C)C)C(=O)N[C@@H](CO)C(=O)N[C@@H](Cc1ccccc1)C(=O)N[C@@H](CCCNC(=N)N)C(=O)N[C@@H](C)C(=O)N[C@@H](CCCNC(=N)N)C(=O)N[C@@H](C)C(=O)N[C@@H](Cc1ccc(O)cc1)C(=O)NCC(=O)N[C@@H](Cc1ccccc1)C(=O)N[C@@H](CCCNC(=N)N)C(=O)NCC(=O)N1CCC[C@H]1C(=O)NCC(=O)N1CCC[C@H]1C(=O)N[C@@H](CCC(N)=O)C(=O)N[C@@H](CC(C)C)C(=O)O [hCts] (H-SSMKLSFRARAYGFRGPGPQL-OH)															>240 µg/mL	>240 µg/mL	>240 µg/mL	>240 µg/mL	>240 µg/mL	MIC C. albicans “S” [9]: >240 µg/mL
OC(Cn1cncn1)(Cn1cncn1)c1ccc(F)cc1F [Fluconazole]	> 256 µg/mL	R	0.125 µg/mL (≈ 0.408 µM)	S	> 256 µg/mL	R	3 µg/mL (≈ 9.8 µM)	I	96 µg/mL (≈ 313 µM)	R	0.5 µg/mL (≈ 1.63 µM)	S	0.38 µg/mL (≈ 1.24 µM)	S						
CSCC[C@@H](NC(=O)[C@@H](CO)NC(=O)[C@H](N)CCCNC(=N)N)C(=O)N[C@H](CCCNC(=N)N)C(=O)N[C@H](CC(C)C)C(=O)N[C@H](CO)C(=O)N[C@H](Cc1ccccc1)C(=O)N[C@H](CCCNC(=N)N)C(=O)N[C@H](C)C(=O)N[C@H](CCCNC(=N)N)C(=O)NCC(=O)N[C@H](Cc1ccc(O)cc1)C(=O)NCC(=O)N[C@H](Cc1ccccc1)C(=O)N[C@H](CCCNC(=N)N)C(=O)O [Peptide P1] (H-[dR][dS][dM][dR][dL][dS][dF][dR][dA][dR]G[dY]G[dF][dR]-OH; N-terminus and C-terminus assumed)															9.6 µg/mL (≈ 5.16 µM)	15.0 µg/mL (≈ 8.06 µM)	13.4 µg/mL (≈ 7.2 µM)	2.0 µg/mL (≈ 1.08 µM)	8.1 µg/mL (≈ 4.35 µM)	TEM observation [14]: fungal membrane lysis; TEM observation [15]: fungal membrane lysis; MIC C. albicans “S” (as stated in discussion) ([16]; peptide alone, same figures as the * values of Tables 2 and 3): 5.5 µM (≈ 10.2 µg/mL); MIC C. albicans “S” [16]: 5.5 * µg/mL; MIC C. albicans “S” ([16]; listed as D-form of bCtl): 5.5 µg/mL (≈ 2.96 µM)
Caspofungin		S		S		I		I		S		S		S						MIC [1]: 0.047 µg/mL; MIC [2]: 0.094 µg/mL; MIC [3]: 0.25 µg/mL; MIC [4]: 0.25 µg/mL; MIC [5]: 0.125 µg/mL; MIC [6]: 0.125 µg/mL; MIC [7]: 0.125 µg/mL
